Experimental findings from ChEMBL document CHEMBL5154883, “Conformational Constrained 4-(1-Sulfonyl-3-indol)yl-2-phenylaminopyrimidine Derivatives as New Fourth-Generation Epidermal Growth Factor Receptor Inhibitors Targeting T790M/C797S Mutations” (J Med Chem, 2022) are described below.

Data set [1] has as its system A-431. Nature of the data set: Antiproliferative activity against human A-431 cells harboring wild type EGFR assessed as reduction in cell viability incubated for 72 hrs by CCK-8 assay. It counts as functional, cell-based. The conditions noted are these: A-431, 72 h. (Formazan colour is commonly taken as a measure of viable cells.)
Data set [2] relates to BaF3. Nature of the data set: Antiproliferative activity against mouse BaF3 cells stably expressing EGFR L858R/T790M/C797S mutant assessed as inhibition of cell growth incubated for 72 hrs by CCK-8 assay. The conditions noted are these: BaF3, 72 h. It counts as functional, cell-based.
The nature of data set [3]: Cytotoxicity against mouse IL-3 dependent BaF3 cells assessed as inhibition of cell growth incubated for 72 hrs by CCK-8 assay. The data set is classed as toxicity, cell-based. Conditions: BaF3 cells (IL-3 dependent).
The test system of data set [4] is PC-9. Nature of the data set: Antiproliferative activity against human osimertinib-resistant PC-9 cells harboring EGFR 19 del/T790M/C797S mutant assessed as reduction in cell viability incubated for 72 hrs by CCK-8 assay. The data set is classed as functional, cell-based. Conditions: PC-9, 72 h.
Data set [5] concerns BaF3. Nature of the data set: Antiproliferative activity against mouse BaF3 cells harboring EGFR 19 del/T790M/C797S mutant assessed as reduction in cell viability incubated for 72 hrs by CCK8 assay. The conditions noted are these: BaF3, 72 h. It counts as functional, cell-based.
Data set [6] relates to BaF3. Nature of the data set: Inhibition of EGFR 19del/T790M/[…] mutant in mouse starved BaF3 cells assessed as reduction in ERK phosphorylation incubated for 120 mins followed by EGF stimulation for 15 mins by Western blot analysis. The data set is classed as cell-based. The conditions noted are these: time 135.0 min, DDE = dose-dependent effect.
Data set [7] has as its system Epidermal growth factor receptor (Homo sapiens), P04626+P00533+Q15303+P21860 [L858R,T790M,C797S]. As to the kind of experiment: Inhibition of EGFR L858R/T790M/[…] mutant in mouse starved BaF3 cells assessed as reduction in EGFR phosphorylation incubated for 120 mins followed by EGF stimulation for 15 mins by Western blot analysis. The conditions noted are these: time 135.0 min, DDE = dose-dependent effect. The data set is classed as cell-based. For orientation: A western blot detects proteins with antibodies after separation by electrophoresis.

For data set [8] the test system is unchanged. Nature of the data set: Inhibition of EGFR L858R/T790M/[…] mutant in mouse starved BaF3 cells assessed as reduction in ERK phosphorylation incubated for 120 mins followed by EGF stimulation for 15 mins by Western blot analysis. It counts as cell-based. Conditions: time 135.0 min, DDE = dose-dependent effect.
Data set [9] deals with Epidermal growth factor receptor (Homo sapiens), P00533 [UNDEFINED MUTATION]. As to the kind of experiment: Inhibition of EGFR 19 del/T790M/C797S mutant in human starved osimertinib-resistant PC-9 cells assessed as reduction in ERK phosphorylation incubated for 120 mins followed by EGF stimulation for 15 mins by Western blot analysis. The data set is classed as cell-based. The conditions noted are these: time 135.0 min, DDE = dose-dependent effect.
Epidermal growth factor receptor (Homo sapiens), P00533 [UNDEFINED MUTATION], sequence (P00533 whole entry, looked up, stated change not applied): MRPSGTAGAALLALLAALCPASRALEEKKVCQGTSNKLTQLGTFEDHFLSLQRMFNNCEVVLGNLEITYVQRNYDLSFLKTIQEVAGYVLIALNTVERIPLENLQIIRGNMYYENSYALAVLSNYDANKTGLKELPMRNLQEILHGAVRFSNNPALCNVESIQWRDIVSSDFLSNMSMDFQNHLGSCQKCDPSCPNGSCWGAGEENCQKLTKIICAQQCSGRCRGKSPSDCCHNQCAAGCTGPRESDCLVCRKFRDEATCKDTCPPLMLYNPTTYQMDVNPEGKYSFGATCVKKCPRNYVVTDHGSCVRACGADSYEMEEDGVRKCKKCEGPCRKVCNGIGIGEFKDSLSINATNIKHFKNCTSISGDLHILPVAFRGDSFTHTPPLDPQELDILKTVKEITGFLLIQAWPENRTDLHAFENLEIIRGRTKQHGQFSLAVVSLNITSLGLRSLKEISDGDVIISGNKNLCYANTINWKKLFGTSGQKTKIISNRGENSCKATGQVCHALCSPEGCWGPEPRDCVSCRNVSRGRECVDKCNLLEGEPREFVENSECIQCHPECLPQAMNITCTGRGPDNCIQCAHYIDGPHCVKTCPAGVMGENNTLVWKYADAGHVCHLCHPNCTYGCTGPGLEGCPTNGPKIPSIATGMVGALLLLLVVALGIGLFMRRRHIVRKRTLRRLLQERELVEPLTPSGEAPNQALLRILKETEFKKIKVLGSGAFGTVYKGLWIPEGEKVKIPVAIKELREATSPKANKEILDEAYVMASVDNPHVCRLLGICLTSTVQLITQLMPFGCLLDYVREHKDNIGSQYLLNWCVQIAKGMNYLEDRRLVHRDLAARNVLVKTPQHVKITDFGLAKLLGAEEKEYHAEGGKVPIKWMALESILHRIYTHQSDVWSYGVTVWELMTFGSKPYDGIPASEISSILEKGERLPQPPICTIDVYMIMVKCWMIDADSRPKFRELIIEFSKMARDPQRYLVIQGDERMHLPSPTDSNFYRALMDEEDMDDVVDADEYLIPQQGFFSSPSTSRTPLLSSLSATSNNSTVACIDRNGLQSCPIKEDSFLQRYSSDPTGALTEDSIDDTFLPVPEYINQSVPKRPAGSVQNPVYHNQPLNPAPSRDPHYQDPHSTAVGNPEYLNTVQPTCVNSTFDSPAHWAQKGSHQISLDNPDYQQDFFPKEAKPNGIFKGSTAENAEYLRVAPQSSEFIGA

Data set [10] deals with Epidermal growth factor receptor (Homo sapiens, UniProt P00533, C797S/L858R/T790M). Nature of the data set: Inhibition of EGFR L858R/T790M/C797S mutant (unknown origin) by ELISA.
Epidermal growth factor receptor (Homo sapiens, UniProt P00533, C797S/L858R/T790M), sequence (P00533 25-1210 T790M/C797S/L858R limits assumed): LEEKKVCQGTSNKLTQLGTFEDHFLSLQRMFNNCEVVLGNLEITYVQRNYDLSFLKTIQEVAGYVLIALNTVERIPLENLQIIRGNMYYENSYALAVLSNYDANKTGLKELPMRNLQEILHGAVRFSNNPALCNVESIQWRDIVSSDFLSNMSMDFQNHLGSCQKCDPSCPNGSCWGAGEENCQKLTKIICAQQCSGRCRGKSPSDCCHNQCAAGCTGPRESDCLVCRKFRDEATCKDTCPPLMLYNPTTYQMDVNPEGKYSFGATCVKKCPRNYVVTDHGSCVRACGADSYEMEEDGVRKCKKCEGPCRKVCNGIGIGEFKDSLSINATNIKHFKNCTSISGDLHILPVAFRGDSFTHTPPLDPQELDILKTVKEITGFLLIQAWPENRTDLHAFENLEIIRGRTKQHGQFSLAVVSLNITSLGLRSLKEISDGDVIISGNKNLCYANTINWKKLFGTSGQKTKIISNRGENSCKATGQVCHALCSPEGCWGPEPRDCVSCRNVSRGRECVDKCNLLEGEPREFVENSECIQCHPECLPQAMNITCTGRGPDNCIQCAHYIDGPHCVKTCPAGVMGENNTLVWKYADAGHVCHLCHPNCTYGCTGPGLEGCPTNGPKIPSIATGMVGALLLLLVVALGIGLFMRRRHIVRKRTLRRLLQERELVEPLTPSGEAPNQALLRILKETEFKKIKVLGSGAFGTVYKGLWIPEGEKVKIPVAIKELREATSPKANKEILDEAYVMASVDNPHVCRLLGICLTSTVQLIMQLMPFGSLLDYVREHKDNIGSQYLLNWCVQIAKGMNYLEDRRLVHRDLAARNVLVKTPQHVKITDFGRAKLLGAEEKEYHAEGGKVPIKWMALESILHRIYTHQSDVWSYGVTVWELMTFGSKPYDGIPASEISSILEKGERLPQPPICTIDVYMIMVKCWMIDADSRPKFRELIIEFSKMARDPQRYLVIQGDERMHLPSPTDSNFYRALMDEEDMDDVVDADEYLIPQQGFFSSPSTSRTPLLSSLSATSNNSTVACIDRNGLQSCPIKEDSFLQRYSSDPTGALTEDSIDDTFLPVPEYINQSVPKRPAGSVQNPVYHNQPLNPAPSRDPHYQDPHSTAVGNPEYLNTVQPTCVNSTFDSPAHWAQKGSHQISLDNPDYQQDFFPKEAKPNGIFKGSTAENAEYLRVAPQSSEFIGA
The subject of data set [11] is BaF3. As to the kind of experiment: Inhibition of EGFR 19del/T790M/[…] mutant in mouse starved BaF3 cells assessed as reduction in EGFR phosphorylation incubated for 120 mins followed by EGF stimulation for 15 mins by Western blot analysis. It counts as cell-based. The conditions noted are these: time 135.0 min, DDE = dose-dependent effect.
The target of data set [12] is Epidermal growth factor receptor (Homo sapiens, UniProt P00533). As to the kind of experiment: Inhibition of wild type EGFR (unknown origin) by ELISA. Background: An ELISA detects its analyte on a solid surface through an enzyme-linked reagent.
Epidermal growth factor receptor (Homo sapiens, UniProt P00533), sequence (P00533 whole entry): as the sequence (P00533 whole entry, looked up, stated change not applied) above
Data set [13] relates to Epidermal growth factor receptor (Homo sapiens), P00533 [UNDEFINED MUTATION]. As to the kind of experiment: Inhibition of EGFR 19 del/T790M/C797S mutant in human starved osimertinib-resistant PC-9 cells assessed as reduction in EGFR phosphorylation incubated for 120 mins followed by EGF stimulation for 15 mins by Western blot analysis. The data set is classed as cell-based. Conditions: time 135.0 min, DDE = dose-dependent effect.

Consider `C=CC(=O)Nc1cc(Nc2nccc(-c3cn(C)c4ccccc34)n2)c(OC)cc1N(C)CCN(C)C` [OSIMERTINIB], for which the IC50 – broadly, the midpoint of a concentration-inhibition curve – in data set [1] was […]; in data set [2], 4270 nM; in [4], 5430 nM; in data set [5], 6070 nM. Also, in data set [3], the IC50 at 72 h was found to be 3520 nM.

For `CCS(=O)(=O)n1cc2c3ccc(cc31)OCCCCCCOc1cc(c(C)cc1N1CCOCC1)Nc1ncc(Cl)c-2n1`, the IC50 stood at 2000 nM in data set [1]; 36 nM in data set [2]; 23.6 nM in data set [10]; 644 nM in [4]; 52 nM in [5]; 308 nM in [12]. Moreover, the inhibition entry in [6], in [7], in [8], in data set [9], in [11] and in data set [13] was “Dde” in each case. Moreover, the IC50 at 72 h in [3] was 2080 nM.

Take `COc1cc(N2CCC(N3CCN(C)CC3)CC2)ccc1Nc1ncc(Cl)c(Nc2ccccc2P(C)(C)=O)n1` [BRIGATINIB]: the IC50 turned out to be 1360 nM in data set [1], 610 nM in data set [2], 1450 nM in [4] and 492 nM in data set [5]. For the same compound, in data set [3], the IC50 at 72 h was determined as 1910 nM.
